Assay [1] relates to weed plants such as Digitaria sanguinalis, Echinochloa crus-galli, Setaria faberi, Setaria viridis, Sorghum halepense, Abutilon theophrasti, Amaranthum …. The assay can be described thus: Pre-emergence effect on weeds (greenhouse pot test). The format is in vivo, monocotyledonous and dicotyledonous weed plants. The following applies: application rate of 1 kg or less of active substance per hectare; scored visually after 3 to 4 weeks by comparison with untreated controls. From the text: Seeds or rhizome pieces of monocotyledonous and dicotyledonous weed plants are placed in sandy loam soil in plastic pots and covered with soil. The compounds according to the invention which are formulated in the form of wettable powders or emulsion concentrates are then applied to the surface of the soil cover in the form of aqueous suspensions or emulsions at an application rate of 600 to 800 l of water/ha (converted), in various dosages.
After the treatment, the pots are placed in a greenhouse and kept under good growth conditions for the weeds. After the test plants have emerged, the damage to the plants or the negative effect on the emergence is scored visually after a test period of 3 to 4 weeks by comparison with untreated controls. As shown by the test results, compounds according to the invention have good herbicidal pre-emergence activity against a broad spectrum of weed grasses and broad-leafed weeds.

Assay [2] relates to harmful plants such as Digitaria sanguinalis, Echinochloa crus-galli, Setaria faberi, Setaria viridis, Sorghum halepense, Abutilon theophrasti, Amaranthum …. Description: Post-emergence effect on weeds (greenhouse pot test). In kind it is in vivo, monocotyledonous and dicotyledonous weeds. To be noted: application rate of 1 kg and less of active substance per hectare; treated at three-leaf stage; scored visually after about 3 to 4 weeks by comparison with untreated controls. As for the experimental part:
Seeds or rhizome pieces of monocotyledonous and dicotyledonous weeds are placed in sandy loam soil in plastic pots, covered with soil and grown in a greenhouse under good growth conditions. Three weeks after sowing, the test plants are treated at the three-leaf stage. The compounds according to the invention which were formulated as wettable powders or emulsion concentrates are sprayed, at various dosages, onto the green parts of the plants at an application rate of 600 to 800 l of water/ha (converted). After the test plants have remained in the greenhouse for about 3 to 4 weeks under optimum growth conditions, the effect of the preparations is scored visually by comparison with untreated controls. The agents according to the invention also have good herbicidal activity post-emergence against a broad spectrum of economically important weed grasses and broad-leafed weeds.

On to `Cc1nc(N)nc(NC2CCN(c3cccc(F)c3)C2=O)n1` (stereo not shown) [Example A1], for which, in assay [1], the herbicidal activity pre-emergence entry is “very good herbicidal activity”. Further, in assay [2], the herbicidal activity post-emergence result is recorded as “very good herbicidal activity”.

On to `Cc1nc(N)nc(NC2CCN(c3ccccc3)C2=O)n1` (stereo not shown) [Example A2], for which the herbicidal activity pre-emergence result in assay [1] was “very good herbicidal activity”. In addition, the herbicidal activity post-emergence result in assay [2] is given as “very good herbicidal activity”.

Consider `Cc1nc(N)nc(NC2CCN(c3cccc(C(F)(F)F)c3)C2=O)n1` (stereo not shown) [Example A3], for which the herbicidal activity pre-emergence entry in assay [1] is recorded as “very good herbicidal activity”. Besides, in assay [2], the herbicidal activity post-emergence entry is on record as “very good herbicidal activity”.

For the compound `Cc1cccc(N2CCC(Nc3nc(C)nc(N)n3)C2=O)c1` (stereo not shown) [Example A4], in assay [1], the herbicidal activity pre-emergence result is “very good herbicidal activity”. For the same compound, the herbicidal activity post-emergence result in assay [2] was “very good herbicidal activity”.

With `Cc1cc(C)cc(N2CCC(Nc3nc(C)nc(N)n3)C2=O)c1` (stereo not shown) [Example A5], the herbicidal activity pre-emergence entry in assay [1] is “very good herbicidal activity”. The herbicidal activity post-emergence result in assay [2] is “very good herbicidal activity”.

For the compound `Cc1nc(N)nc(NC2CCN(c3ccc(F)c(C)c3)C2=O)n1` (stereo not shown) [Example A6], in assay [1], the herbicidal activity pre-emergence result is “very good herbicidal activity”. Also, the herbicidal activity post-emergence entry in assay [2] was “very good herbicidal activity”.

As to `COc1cccc(N2CCC(Nc3nc(C)nc(N)n3)C2=O)c1` (stereo not shown) [Example A7], in assay [1], the herbicidal activity pre-emergence entry is recorded as “very good herbicidal activity”. Further, the herbicidal activity post-emergence entry in assay [2] is “very good herbicidal activity”.

For `Cc1nc(N)nc(NC2CCN(c3cccc(OC(F)(F)F)c3)C2=O)n1` (stereo not shown) [Example A8], the herbicidal activity pre-emergence result in assay [1] was “very good herbicidal activity”. Besides, the herbicidal activity post-emergence result in assay [2] is “very good herbicidal activity”.

Regarding `Cc1nc(N)nc(NC2CCN(c3cccc(Cl)c3)C2=O)n1` (stereo not shown) [Example A9], the herbicidal activity pre-emergence entry in assay [1] is reported as “very good herbicidal activity”. The herbicidal activity post-emergence result in assay [2] is on record as “very good herbicidal activity”.

`CC(F)c1nc(N)nc(NC2CCN(c3cccc(F)c3)C2=O)n1` (stereo not shown) [Example A10]: the herbicidal activity pre-emergence entry in assay [1] is “very good herbicidal activity”. In addition, the herbicidal activity post-emergence result in assay [2] is “very good herbicidal activity”.

Consider `CC(F)c1nc(N)nc(NC2CCN(c3ccccc3)C2=O)n1` (stereo not shown) [Example A11], for which the herbicidal activity pre-emergence entry in assay [1] is given as “very good herbicidal activity”. The herbicidal activity post-emergence result in assay [2] is “very good herbicidal activity”.

As for `CC(F)c1nc(N)nc(NC2CCN(c3cccc(C(F)(F)F)c3)C2=O)n1` (stereo not shown) [Example A12], the herbicidal activity pre-emergence entry in assay [1] is “very good herbicidal activity”. The herbicidal activity post-emergence result in assay [2] is given as “very good herbicidal activity”.

`Cc1cccc(N2CCC(Nc3nc(N)nc(C(C)F)n3)C2=O)c1` (stereo not shown) [Example A13]: the herbicidal activity pre-emergence result in assay [1] is recorded as “very good herbicidal activity”. The herbicidal activity post-emergence result in assay [2] is reported as “very good herbicidal activity”.

On to `Cc1cc(C)cc(N2CCC(Nc3nc(N)nc(C(C)F)n3)C2=O)c1` (stereo not shown) [Example A14], for which, in assay [1], the herbicidal activity pre-emergence entry was “very good herbicidal activity”. The herbicidal activity post-emergence result in assay [2] is “very good herbicidal activity”.

For the compound `Cc1cc(N2CCC(Nc3nc(N)nc(C(C)F)n3)C2=O)ccc1F` (stereo not shown) [Example A15], in assay [1], the herbicidal activity pre-emergence result is on record as “very good herbicidal activity”. Also, the herbicidal activity post-emergence result in assay [2] is on record as “very good herbicidal activity”.

Turning to `COc1cccc(N2CCC(Nc3nc(N)nc(C(C)F)n3)C2=O)c1` (stereo not shown) [Example A16], the herbicidal activity pre-emergence result in assay [1] is given as “very good herbicidal activity”. Further, the herbicidal activity post-emergence entry in assay [2] was “very good herbicidal activity”.

As for `CC(F)c1nc(N)nc(NC2CCN(c3cccc(OC(F)(F)F)c3)C2=O)n1` (stereo not shown) [Example A17], the herbicidal activity pre-emergence entry in assay [1] was “very good herbicidal activity”. In addition, the herbicidal activity post-emergence entry in assay [2] is “very good herbicidal activity”.

As to `CC(F)c1nc(N)nc(NC2CCN(c3cccc(Cl)c3)C2=O)n1` (stereo not shown) [Example A18], the herbicidal activity pre-emergence result in assay [1] is “very good herbicidal activity”. In addition, in assay [2], the herbicidal activity post-emergence result is given as “very good herbicidal activity”.

Turning to `CC(C)c1nc(N)nc(NC2CCN(c3cccc(F)c3)C2=O)n1` (stereo not shown) [Example A19], the herbicidal activity pre-emergence entry in assay [1] is recorded as “very good herbicidal activity”. The herbicidal activity post-emergence entry in assay [2] is recorded as “very good herbicidal activity”.

As to `CC(C)c1nc(N)nc(NC2CCN(c3cccc(C(F)(F)F)c3)C2=O)n1` (stereo not shown) [Example A21], the herbicidal activity pre-emergence entry in assay [1] is “very good herbicidal activity”. Besides, the herbicidal activity post-emergence entry in assay [2] is recorded as “very good herbicidal activity”.

On to `Cc1cccc(N2CCC(Nc3nc(N)nc(C(C)C)n3)C2=O)c1` (stereo not shown) [Example A22], for which the herbicidal activity pre-emergence result in assay [1] is listed as “very good herbicidal activity”. In addition, in assay [2], the herbicidal activity post-emergence entry is reported as “very good herbicidal activity”.

Turning to `Cc1cc(C)cc(N2CCC(Nc3nc(N)nc(C(C)C)n3)C2=O)c1` (stereo not shown) [Example A23], the herbicidal activity pre-emergence entry in assay [1] is “very good herbicidal activity”. Further, in assay [2], the herbicidal activity post-emergence entry is “very good herbicidal activity”.

For `Cc1cc(N2CCC(Nc3nc(N)nc(C(C)C)n3)C2=O)ccc1F` (stereo not shown) [Example A24], the herbicidal activity pre-emergence result in assay [1] is listed as “very good herbicidal activity”. Further, the herbicidal activity post-emergence entry in assay [2] is “very good herbicidal activity”.

Regarding `COc1cccc(N2CCC(Nc3nc(N)nc(C(C)C)n3)C2=O)c1` (stereo not shown) [Example A25], in assay [1], the herbicidal activity pre-emergence result was “very good herbicidal activity”. The herbicidal activity post-emergence result in assay [2] is reported as “very good herbicidal activity”.

On to `CC(C)c1nc(N)nc(NC2CCN(c3cccc(OC(F)(F)F)c3)C2=O)n1` (stereo not shown) [Example A26], for which the herbicidal activity pre-emergence entry in assay [1] was “very good herbicidal activity”. Moreover, in assay [2], the herbicidal activity post-emergence entry is reported as “very good herbicidal activity”.

As to `CC(C)c1nc(N)nc(NC2CCN(c3cccc(Cl)c3)C2=O)n1` (stereo not shown) [Example A27], the herbicidal activity pre-emergence entry in assay [1] is “very good herbicidal activity”. Moreover, in assay [2], the herbicidal activity post-emergence entry is reported as “very good herbicidal activity”.

Turning to `CC(C)(F)c1nc(N)nc(NC2CCN(c3cccc(F)c3)C2=O)n1` (stereo not shown) [Example A28], in assay [1], the herbicidal activity pre-emergence result is on record as “very good herbicidal activity”. For the same compound, the herbicidal activity post-emergence entry in assay [2] was “very good herbicidal activity”.

Regarding `Cc1cc(N2CCC(Nc3nc(N)nc(C(C)(C)F)n3)C2=O)ccc1F` (stereo not shown) [Example A29], the herbicidal activity pre-emergence entry in assay [1] was “very good herbicidal activity”. Besides, the herbicidal activity post-emergence entry in assay [2] is “very good herbicidal activity”.

For `COc1cccc(N2CCC(Nc3nc(N)nc(C(C)(C)F)n3)C2=O)c1` (stereo not shown) [Example A30], the herbicidal activity pre-emergence result in assay [1] is “very good herbicidal activity”. Besides, the herbicidal activity post-emergence entry in assay [2] was “very good herbicidal activity”.

Consider `CC(C)(F)c1nc(N)nc(NC2CCN(c3cccc(OC(F)(F)F)c3)C2=O)n1` (stereo not shown) [Example A31], for which, in assay [1], the herbicidal activity pre-emergence result is “very good herbicidal activity”. Moreover, the herbicidal activity post-emergence entry in assay [2] is “very good herbicidal activity”.

Consider `CC(C)(F)c1nc(N)nc(NC2CCN(c3cccc(C(F)(F)F)c3)C2=O)n1` (stereo not shown) [Example A32], for which the herbicidal activity pre-emergence entry in assay [1] is “very good herbicidal activity”. Moreover, in assay [2], the herbicidal activity post-emergence result was “very good herbicidal activity”.

Take `Cc1cccc(N2CCC(Nc3nc(N)nc(C(C)(C)F)n3)C2=O)c1` (stereo not shown) [Example A33]: in assay [1], the herbicidal activity pre-emergence result is listed as “very good herbicidal activity”. For the same compound, the herbicidal activity post-emergence entry in assay [2] was “very good herbicidal activity”.

For the compound `Cc1cc(C)cc(N2CCC(Nc3nc(N)nc(C(C)(C)F)n3)C2=O)c1` (stereo not shown) [Example A34], the herbicidal activity pre-emergence entry in assay [1] was “very good herbicidal activity”. The herbicidal activity post-emergence result in assay [2] is “very good herbicidal activity”.

On to `CC(C)(F)c1nc(N)nc(NC2CCN(c3ccccc3)C2=O)n1` (stereo not shown) [Example A35], for which the herbicidal activity pre-emergence result in assay [1] was “very good herbicidal activity”. Besides, in assay [2], the herbicidal activity post-emergence entry is listed as “very good herbicidal activity”.

For the compound `CC(C)(F)c1nc(N)nc(NC2CCN(c3cccc(Cl)c3)C2=O)n1` (stereo not shown) [Example A36], in assay [1], the herbicidal activity pre-emergence entry is given as “very good herbicidal activity”. Moreover, the herbicidal activity post-emergence entry in assay [2] was “very good herbicidal activity”.

`CC(F)c1nc(N)nc(OC2CCN(c3cccc(C(F)(F)F)c3)C2=O)n1` (stereo not shown) [Example A37]: the herbicidal activity pre-emergence result in assay [1] is “very good herbicidal activity”. In assay [2], the herbicidal activity post-emergence result is given as “very good herbicidal activity”.

In the case of `Cc1cccc(N2CCC(Oc3nc(N)nc(C(C)F)n3)C2=O)c1` (stereo not shown) [Example A38], the herbicidal activity pre-emergence entry in assay [1] is reported as “very good herbicidal activity”. The herbicidal activity post-emergence result in assay [2] is “very good herbicidal activity”.

With `Cc1cc(C)cc(N2CCC(Oc3nc(N)nc(C(C)F)n3)C2=O)c1` (stereo not shown) [Example A39], the herbicidal activity pre-emergence entry in assay [1] is reported as “very good herbicidal activity”. For the same compound, the herbicidal activity post-emergence result in assay [2] was “very good herbicidal activity”.

(Values after patent US20030171218A1, “Substituted 3-heteroaryl(amino- or oxy)pyrrolidin-2-ones, their preparation and use as herbicides or plant growth regulators” (priority 2001, published 2003).)
